Values of other authors as cited in patent publication US6723337B1, “Transdermal drug delivery system for anti-inflammatory analgesic agent comprising diclofenac diethylammonium salt, and the manufacturing method thereof” (Samyang Corporation, priority 1997, dated 2004).

Conditions: composition comprising hydroxy ethyl pyrrolidone or hydroxy ethyl piperidine as absorption enhancer

transdermal penetration of the accumulated diclofenac: 180 μg/cm^2·day
Structure (SMILES): O=C(O)Cc1ccccc1Nc1c(Cl)cccc1Cl [diclofenac]
